From ChEMBL document CHEMBL1144495, “Tri-, tetra- and heptacyclic perylene analogues as new potential antineoplastic agents based on DNA telomerase inhibition” (Bioorg Med Chem, 2007) come the findings set out here.

Active and inactive are the calls of the source. No cut-off for these calls is given here.

The term IC50 denotes the concentration needed to halve the response being measured.

Test [1] deals with T1, Telomerase reverse transcriptase (Homo sapiens, UniProt O14746). Put plainly: Inhibition of telomerase in JR8 cell extract at 0 to 40 uM by TRAP assay. It counts as cell-free.
Test [2] addresses DNA polymerase I, thermostable (Thermus aquaticus, UniProt P19821). The test is described as follows: Inhibition of Taq polymerase.
For test [3], the system named is NCI-H460. Put plainly: Cytotoxicity against human H460 cells by MTT assay. It counts as cell-based. A general note: Tetrazolium dyes change colour on reduction, which living cells bring about.
Test [4] deals with HT-29. The test is described as follows: Cytotoxicity against human HT29 cells by MTT assay. The class given is cell-based.
Test [5] has as its target T1, Telomerase reverse transcriptase. Put plainly: Inhibition of telomerase in JR8 cell extract by TRAP assay. The class given is cell-free.
The nature of test [6]: Selectivity index, ratio of IC50 for Taq polymerase to IC50 for telomerase.

T1 sequence (O14746 whole entry): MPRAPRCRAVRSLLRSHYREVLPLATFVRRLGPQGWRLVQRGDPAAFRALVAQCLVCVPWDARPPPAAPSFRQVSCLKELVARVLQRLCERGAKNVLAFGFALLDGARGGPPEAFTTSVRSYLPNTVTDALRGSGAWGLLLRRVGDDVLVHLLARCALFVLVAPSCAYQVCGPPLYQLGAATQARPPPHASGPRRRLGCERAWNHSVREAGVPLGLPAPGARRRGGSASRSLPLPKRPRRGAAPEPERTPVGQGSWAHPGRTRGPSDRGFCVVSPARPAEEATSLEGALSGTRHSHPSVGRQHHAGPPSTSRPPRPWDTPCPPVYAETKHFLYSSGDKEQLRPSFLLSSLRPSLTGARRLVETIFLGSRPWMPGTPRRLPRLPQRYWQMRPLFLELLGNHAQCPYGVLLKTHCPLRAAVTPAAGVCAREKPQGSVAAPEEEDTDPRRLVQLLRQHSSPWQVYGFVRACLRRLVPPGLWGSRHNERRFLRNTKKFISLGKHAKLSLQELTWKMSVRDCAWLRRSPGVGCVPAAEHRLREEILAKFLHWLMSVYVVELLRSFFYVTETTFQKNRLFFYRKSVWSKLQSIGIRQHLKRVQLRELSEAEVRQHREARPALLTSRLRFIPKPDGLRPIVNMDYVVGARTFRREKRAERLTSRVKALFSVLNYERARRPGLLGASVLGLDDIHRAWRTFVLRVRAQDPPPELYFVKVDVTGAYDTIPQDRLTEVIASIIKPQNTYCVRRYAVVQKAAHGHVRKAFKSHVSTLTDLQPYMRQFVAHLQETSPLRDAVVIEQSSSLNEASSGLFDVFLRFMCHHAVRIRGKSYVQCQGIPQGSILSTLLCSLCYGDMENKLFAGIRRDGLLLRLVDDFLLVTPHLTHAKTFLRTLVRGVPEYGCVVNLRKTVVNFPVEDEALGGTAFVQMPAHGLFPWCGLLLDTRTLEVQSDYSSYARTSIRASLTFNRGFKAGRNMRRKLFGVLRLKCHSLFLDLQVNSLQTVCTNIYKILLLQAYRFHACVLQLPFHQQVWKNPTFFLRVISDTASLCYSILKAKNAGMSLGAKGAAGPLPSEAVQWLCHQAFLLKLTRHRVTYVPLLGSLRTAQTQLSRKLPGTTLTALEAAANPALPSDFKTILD
DNA polymerase I, thermostable, sequence (P19821 whole entry): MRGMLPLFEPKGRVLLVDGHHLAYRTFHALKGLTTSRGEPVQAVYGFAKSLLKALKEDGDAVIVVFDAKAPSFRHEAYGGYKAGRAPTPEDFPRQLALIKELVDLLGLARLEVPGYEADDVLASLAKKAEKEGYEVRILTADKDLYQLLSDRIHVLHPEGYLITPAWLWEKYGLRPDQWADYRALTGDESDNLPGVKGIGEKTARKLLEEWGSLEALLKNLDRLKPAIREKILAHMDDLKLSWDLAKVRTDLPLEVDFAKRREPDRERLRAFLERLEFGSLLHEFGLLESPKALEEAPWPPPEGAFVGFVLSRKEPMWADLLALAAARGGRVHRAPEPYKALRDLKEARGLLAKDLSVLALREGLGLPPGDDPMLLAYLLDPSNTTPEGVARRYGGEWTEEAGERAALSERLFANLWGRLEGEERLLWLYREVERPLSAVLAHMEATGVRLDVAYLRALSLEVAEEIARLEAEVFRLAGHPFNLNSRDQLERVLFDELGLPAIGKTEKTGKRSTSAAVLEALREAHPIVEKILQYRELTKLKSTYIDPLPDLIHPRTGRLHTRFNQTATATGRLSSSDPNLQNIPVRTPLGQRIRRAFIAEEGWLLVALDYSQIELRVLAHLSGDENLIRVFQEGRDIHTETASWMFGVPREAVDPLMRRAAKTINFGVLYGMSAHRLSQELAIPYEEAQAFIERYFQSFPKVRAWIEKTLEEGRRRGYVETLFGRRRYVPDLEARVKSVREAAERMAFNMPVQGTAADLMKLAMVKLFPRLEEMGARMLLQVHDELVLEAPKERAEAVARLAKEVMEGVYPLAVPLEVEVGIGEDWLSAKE

Take `CN1Cc2ccc3c4c(ccc(c24)C1)CN(C)C3`: the outcome in test [1] was inactive. Moreover, the results for the IC50 in test [2], in test [3] and in test [4] were greater than 40 µM, no less than 100 µM and no less than 100 µM, respectively.

Regarding `C[N+](C)(C)CCN1C(=O)c2ccc3c4c(ccc(c24)C1=O)C(=O)N(CC[N+](C)(C)C)C3=O`, the IC50 in test [5] was found to be 2.5 µM; in test [2], 5 µM; in test [3], 2.21 µM; in test [4], 3.24 µM. In test [6], the Selectivity index is 2.

Turning to `O=C1c2ccc3c4ccc5c6c(ccc(c7ccc(c2c37)C(=O)N1CCNCCO)c64)C(=O)N(CCNCCO)C5=O`, the IC50 is 0.06 µM in test [5], 0.2 µM in test [2], 2.62 µM in test [3] and 1.17 µM in test [4]. For the same compound, in test [6], the Selectivity index was 2.

As to `C[N+](C)(C)CCN1C(=O)c2ccc3c4ccc5c6c(ccc(c7ccc(c2c37)C1=O)c64)C(=O)N(CC[N+](C)(C)C)C5=O`, the IC50 was 0.03 µM in test [5], 0.15 µM in test [2], no less than 100 µM in test [3] and no less than 100 µM in test [4]. For the same compound, the Selectivity index in test [6] was 4.2.

Regarding `c1cc2c3ccc4c5c(ccc(c6ccc7c(c1CN(CCN1CCCCC1)C7)c26)c53)CN(CCN1CCCCC1)C4`, the IC50 in test [5] was 0.4 µM; in test [2], 10 µM; in test [3], 28.1 µM; in test [4] it was 5.4 µM. Further, in test [6], the Selectivity index is 25.

Regarding `CN(C)CCN1C(=O)c2ccc3c4ccc5c6c(ccc(c7ccc(c2c37)C1=O)c64)C(=O)N(CCN(C)C)C5=O`, the IC50 in test [5] was 0.16 µM; in test [2] it was 0.9 µM; in test [3], 2.3 µM; in test [4] it was 0.23 µM. Besides, the Selectivity index in test [6] was determined as 5.6.

Take `CN(C)CCN1C(=O)c2cccc3cccc(c23)C1=O`: the result in test [1] was inactive. The values for the IC50 in test [2], in test [3] and in test [4] were greater than 40 µM, 3.42 µM and 5.05 µM, respectively.

Turning to `C[N+](C)(C)CCCN1C(=O)c2ccc3c4c(ccc(c24)C1=O)C(=O)N(CCC[N+](C)(C)C)C3=O`, the IC50 in test [5] was found to be 2.5 µM; in test [2], 5 µM; in test [3] it was 1.14 µM; in test [4], 8.89 µM. Also, the Selectivity index in test [6] stood at 2.

As for `CN(C)CCN1Cc2ccc3c4c(ccc(c24)C1)CN(CCN(C)C)C3`, the result in test [1] was inactive. The values for the half-maximal inhibitory concentration (IC50) in test [2], in test [3] and in test [4] were 25 µM, no less than 100 µM and 15.2 µM, respectively.

As for `CN(C)CCN1Cc2cccc3cccc(c23)C1`, the result in test [1] was inactive. For the same compound, the IC50 was greater than 40 µM in test [2], no less than 100 µM in test [3] and no less than 100 µM in test [4].

In the case of `O=C1c2ccc3c4ccc5c6c(ccc(c7ccc(c2c37)C(=O)N1CCN1CCCCC1)c64)C(=O)N(CCN1CCCCC1)C5=O`, the IC50 in test [5] was 0.2 µM; in test [2] it was 5 µM; in test [3], no less than 100 µM; in test [4], 9.02 µM. In addition, the Selectivity index in test [6] was 25.

On to `CN(C)CCCN1C(=O)c2ccc3c4c(ccc(c24)C1=O)C(=O)N(CCCN(C)C)C3=O`, for which the IC50 in test [5] turned out to be 3.5 µM; in test [2], 6.4 µM; in test [3], 0.42 µM; in test [4], 0.13 µM. Also, in test [6], the Selectivity index turned out to be 1.8.

`O=C1c2ccc3c4c(ccc(c24)C(=O)N1CCNCCO)C(=O)N(CCNCCO)C3=O`: the result in test [1] was inactive. Moreover, the results for the 50% inhibitory concentration (IC50) in test [2], in test [3] and in test [4] were 5.8 µM, 9.3 µM and 11.7 µM, respectively.

With `CN(C)CCN1C(=O)c2ccc3c4c(ccc(c24)C1=O)C(=O)N(CCN(C)C)C3=O`, the result in test [1] was inactive. The IC50 in test [2] came out at 1.5 µM; in test [3], 0.16 µM.

Take `C[N+](C)(C)CCN1C(=O)c2cccc3cccc(c23)C1=O`: in test [1], the result was inactive. Moreover, the IC50 was 22 µM in test [2] and no less than 100 µM in test [3].
